Test results taken from ChEMBL document CHEMBL5649166, “RIP3 induces apoptosis independent of pronecrotic kinase activity” (Mol Cell, 2014).

Assays:
[1] = target: STE20/SPS1-related proline-alanine-rich protein kinase (Homo sapiens) (UniProt Q9UEW8); test: Residual activity of human STK39/STLK3 using myelin basic protein as substrate at 1 uM in presence of 32P-ATP by Hotspot assay relative to control
[2] = target: T1, Dual specificity tyrosine-phosphorylation-regulated kinase 3 (Homo sapiens) (UniProt O43781); test: Residual activity of human DYRK3 using RRRFRPASPLRGPPK as substrate at 1 uM in presence of 32P-ATP by Hotspot assay relative to control
T1 sequence (whole entry): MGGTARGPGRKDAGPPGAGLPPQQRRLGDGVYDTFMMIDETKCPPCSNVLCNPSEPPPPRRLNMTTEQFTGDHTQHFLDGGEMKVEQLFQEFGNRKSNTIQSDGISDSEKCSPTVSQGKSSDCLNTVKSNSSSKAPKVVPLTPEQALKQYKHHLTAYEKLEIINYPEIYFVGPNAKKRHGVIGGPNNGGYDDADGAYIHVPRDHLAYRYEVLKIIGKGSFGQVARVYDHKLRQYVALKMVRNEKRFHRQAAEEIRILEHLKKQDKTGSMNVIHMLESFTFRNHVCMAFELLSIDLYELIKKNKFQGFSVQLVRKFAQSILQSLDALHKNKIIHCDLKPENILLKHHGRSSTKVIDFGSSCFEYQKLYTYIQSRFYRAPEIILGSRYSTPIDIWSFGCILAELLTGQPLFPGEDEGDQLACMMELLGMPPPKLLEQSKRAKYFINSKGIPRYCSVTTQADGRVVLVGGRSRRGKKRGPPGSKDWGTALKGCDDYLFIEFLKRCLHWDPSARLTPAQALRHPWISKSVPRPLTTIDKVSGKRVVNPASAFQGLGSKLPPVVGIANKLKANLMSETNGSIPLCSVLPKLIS

[3] = target: T2, Ephrin type-B receptor 4 (Homo sapiens) (UniProt P54760); test: Inhibition of human EPHB4 using poly[Glu:Tyr] (4:1) as substrate at 1 uM in presence of 32P-ATP by Hotspot assay relative to control; values are per cent of control
T2 sequence (whole entry): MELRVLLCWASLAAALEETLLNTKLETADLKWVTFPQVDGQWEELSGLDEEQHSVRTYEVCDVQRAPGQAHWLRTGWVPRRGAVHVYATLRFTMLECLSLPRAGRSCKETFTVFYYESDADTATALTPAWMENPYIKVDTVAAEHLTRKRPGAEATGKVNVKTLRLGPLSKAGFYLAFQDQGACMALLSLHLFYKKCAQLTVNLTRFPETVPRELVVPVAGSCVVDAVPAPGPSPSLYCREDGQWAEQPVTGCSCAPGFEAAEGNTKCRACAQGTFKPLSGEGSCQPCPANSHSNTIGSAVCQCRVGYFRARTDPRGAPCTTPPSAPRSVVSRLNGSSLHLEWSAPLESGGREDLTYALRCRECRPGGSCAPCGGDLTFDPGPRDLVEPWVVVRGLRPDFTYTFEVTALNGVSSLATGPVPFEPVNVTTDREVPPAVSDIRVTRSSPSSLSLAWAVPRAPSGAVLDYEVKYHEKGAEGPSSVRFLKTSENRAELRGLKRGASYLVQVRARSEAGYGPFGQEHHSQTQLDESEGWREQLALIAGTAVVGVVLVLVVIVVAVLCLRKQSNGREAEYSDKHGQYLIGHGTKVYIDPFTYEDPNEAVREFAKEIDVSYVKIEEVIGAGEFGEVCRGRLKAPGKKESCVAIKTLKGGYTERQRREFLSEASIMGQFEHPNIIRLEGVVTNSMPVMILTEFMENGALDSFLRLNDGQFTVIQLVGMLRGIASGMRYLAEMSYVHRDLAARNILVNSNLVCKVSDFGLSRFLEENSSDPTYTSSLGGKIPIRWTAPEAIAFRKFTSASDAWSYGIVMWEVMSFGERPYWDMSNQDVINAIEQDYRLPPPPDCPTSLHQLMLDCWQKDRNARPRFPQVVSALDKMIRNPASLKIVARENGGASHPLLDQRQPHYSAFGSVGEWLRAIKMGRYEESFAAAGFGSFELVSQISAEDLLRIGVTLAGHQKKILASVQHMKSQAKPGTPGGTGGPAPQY

[4] = target: Receptor tyrosine-protein kinase erbB-2 (Homo sapiens) (UniProt P04626); test: Inhibition of human ERBB2/HER2 using poly[Glu:Tyr] (4:1) as substrate at 1 uM in presence of 32P-ATP by Hotspot assay relative to control; values are per cent of control
Sequence of Receptor tyrosine-protein kinase erbB-2 (Homo sapiens) (P04626 whole entry): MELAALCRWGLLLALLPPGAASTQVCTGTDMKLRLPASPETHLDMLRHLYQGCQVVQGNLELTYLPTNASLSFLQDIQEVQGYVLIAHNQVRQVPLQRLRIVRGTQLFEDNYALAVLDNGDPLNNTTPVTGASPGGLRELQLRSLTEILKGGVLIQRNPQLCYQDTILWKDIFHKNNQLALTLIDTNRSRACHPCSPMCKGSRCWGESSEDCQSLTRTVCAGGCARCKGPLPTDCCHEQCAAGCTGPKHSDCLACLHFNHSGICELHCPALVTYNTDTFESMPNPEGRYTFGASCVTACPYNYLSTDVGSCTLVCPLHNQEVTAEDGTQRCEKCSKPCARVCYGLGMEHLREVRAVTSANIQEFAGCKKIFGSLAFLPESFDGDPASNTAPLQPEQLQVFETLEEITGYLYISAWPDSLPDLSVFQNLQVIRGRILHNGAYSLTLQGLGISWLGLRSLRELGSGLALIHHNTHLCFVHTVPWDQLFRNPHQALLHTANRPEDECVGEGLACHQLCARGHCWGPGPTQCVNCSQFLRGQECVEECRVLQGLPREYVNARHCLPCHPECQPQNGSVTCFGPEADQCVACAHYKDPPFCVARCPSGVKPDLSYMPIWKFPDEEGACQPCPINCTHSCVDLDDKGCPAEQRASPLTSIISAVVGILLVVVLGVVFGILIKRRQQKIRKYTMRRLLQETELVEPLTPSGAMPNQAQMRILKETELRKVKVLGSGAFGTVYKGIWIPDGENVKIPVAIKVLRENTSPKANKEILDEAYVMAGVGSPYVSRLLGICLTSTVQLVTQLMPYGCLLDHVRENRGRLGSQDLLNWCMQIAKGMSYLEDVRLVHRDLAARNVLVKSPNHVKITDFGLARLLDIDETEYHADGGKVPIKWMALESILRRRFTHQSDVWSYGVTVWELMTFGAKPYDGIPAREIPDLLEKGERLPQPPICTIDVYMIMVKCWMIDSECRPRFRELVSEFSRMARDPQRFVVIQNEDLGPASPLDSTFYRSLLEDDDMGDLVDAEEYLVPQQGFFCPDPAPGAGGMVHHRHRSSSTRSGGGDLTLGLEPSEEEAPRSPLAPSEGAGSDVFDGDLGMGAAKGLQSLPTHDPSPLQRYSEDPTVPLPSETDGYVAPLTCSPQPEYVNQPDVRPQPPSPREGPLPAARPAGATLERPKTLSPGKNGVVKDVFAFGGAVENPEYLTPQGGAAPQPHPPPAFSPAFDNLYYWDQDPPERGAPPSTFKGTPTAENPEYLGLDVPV

[5] = target: T3, Inhibitor of nuclear factor kappa-B kinase subunit beta (Homo sapiens) (UniProt O14920); test: Inhibition of human IKKb/IKBKB using KKKKERLLDDRHDSGLDSMKDEE as substrate at 1 uM in presence of 32P-ATP by Hotspot assay relative to control; values are per cent of control
T3 sequence (whole entry): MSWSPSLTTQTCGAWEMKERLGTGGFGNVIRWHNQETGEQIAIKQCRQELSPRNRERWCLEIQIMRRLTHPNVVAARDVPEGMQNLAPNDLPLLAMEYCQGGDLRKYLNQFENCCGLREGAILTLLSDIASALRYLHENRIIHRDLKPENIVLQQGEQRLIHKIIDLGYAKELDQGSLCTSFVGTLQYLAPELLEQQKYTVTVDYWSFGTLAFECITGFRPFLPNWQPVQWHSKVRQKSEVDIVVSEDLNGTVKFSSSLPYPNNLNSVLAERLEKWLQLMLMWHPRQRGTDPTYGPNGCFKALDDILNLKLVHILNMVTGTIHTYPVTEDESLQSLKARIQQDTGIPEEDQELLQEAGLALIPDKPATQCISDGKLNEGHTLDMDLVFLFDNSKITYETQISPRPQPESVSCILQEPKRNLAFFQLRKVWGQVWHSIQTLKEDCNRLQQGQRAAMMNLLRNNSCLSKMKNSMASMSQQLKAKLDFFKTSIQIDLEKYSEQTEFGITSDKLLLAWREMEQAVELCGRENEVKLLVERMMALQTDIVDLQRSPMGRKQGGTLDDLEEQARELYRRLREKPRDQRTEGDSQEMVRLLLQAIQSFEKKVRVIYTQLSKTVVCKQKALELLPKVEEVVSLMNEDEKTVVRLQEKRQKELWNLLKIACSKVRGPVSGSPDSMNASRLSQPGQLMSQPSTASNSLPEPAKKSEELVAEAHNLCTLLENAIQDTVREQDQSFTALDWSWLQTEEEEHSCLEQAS

[6] = target: Activated CDC42 kinase 1 (Homo sapiens) (UniProt Q07912); test: Inhibition of human ACK1 using EAIYAAPFAKKK as substrate at 1 uM in presence of 32P-ATP by Hotspot assay relative to control; values are per cent of control
Sequence of Activated CDC42 kinase 1 (Homo sapiens) (Q07912 whole entry, looked up): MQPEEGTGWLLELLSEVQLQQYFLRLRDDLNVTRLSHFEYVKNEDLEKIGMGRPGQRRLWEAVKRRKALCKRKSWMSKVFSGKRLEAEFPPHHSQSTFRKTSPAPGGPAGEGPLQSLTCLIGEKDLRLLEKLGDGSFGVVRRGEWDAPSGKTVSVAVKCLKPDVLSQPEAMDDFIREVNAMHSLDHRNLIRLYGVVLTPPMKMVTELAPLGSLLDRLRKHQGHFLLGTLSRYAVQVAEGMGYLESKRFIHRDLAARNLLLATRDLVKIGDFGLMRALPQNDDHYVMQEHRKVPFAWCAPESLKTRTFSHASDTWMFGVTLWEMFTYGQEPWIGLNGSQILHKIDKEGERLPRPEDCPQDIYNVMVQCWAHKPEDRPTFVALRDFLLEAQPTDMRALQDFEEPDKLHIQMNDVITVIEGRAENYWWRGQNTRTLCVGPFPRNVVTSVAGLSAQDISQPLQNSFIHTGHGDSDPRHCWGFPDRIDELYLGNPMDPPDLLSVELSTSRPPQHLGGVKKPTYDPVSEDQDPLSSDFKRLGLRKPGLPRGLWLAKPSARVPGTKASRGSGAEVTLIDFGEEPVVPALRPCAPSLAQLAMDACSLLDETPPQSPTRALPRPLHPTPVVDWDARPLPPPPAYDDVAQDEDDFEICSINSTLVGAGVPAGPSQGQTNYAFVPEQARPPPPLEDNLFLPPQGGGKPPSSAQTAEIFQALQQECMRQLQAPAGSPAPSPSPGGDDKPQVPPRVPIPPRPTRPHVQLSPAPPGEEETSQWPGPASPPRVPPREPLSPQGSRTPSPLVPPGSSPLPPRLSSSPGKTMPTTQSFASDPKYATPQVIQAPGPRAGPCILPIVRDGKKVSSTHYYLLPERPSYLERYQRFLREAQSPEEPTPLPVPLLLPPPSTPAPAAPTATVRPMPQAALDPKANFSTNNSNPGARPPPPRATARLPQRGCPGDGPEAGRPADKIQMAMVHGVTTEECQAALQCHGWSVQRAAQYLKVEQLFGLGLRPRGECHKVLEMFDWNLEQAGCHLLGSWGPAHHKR

Compound	residual activity [1] [%]	residual activity [2] [%]	residual activity [3] [%]	residual activity [4] [%]	residual activity [5] [%]	residual activity [6] [%]
CNC(=O)c1ccc2c(c1)ncn2-c1ccc(CC(=O)OC(C)(C)C)cc1	103	101	89.7	100	90.2	93.4
Cc1cc(-c2cnc(N)c3c(-c4ccc5scnc5c4)csc23)n(C)n1	108	92.9	56.3	92.3	104	5.38
CC(C)S(=O)(=O)c1ccc2nccc(Nc3ccc4scnc4c3)c2c1	94.9	106	60.2	85	93.3	47.8
